Measurements: patent publication US9958439B2, “Carbohydrate detection” (RICHTER LIFE SCIENCE DEVELOPMENT AB, priority 2012, dated 2018)
Read-outs that look alike come from different tables or passages of the source.

Legend:
[1] = for RFU change (Correlation analysis): probe-specific excitation λ, emission 545 nm
Method in brief: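 LCO probes at 3 μM mixed with serial two-fold dilutions of carbohydrate in dH2O (10–0.039 or 5–0.019 mg/ml, depending on carbohydrate), in triplicate. Excitation scanned 300–500 nm or fixed per probe (λmax or lowest background), emission at 545 nm. Detection taken as reproducible λmax/RFU shift vs no-carbohydrate control; RFU regressed linearly on concentration.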

[2] = for RFU change (Correlation analysis): probe-specific excitation λ, emission 545 nm; remark: listed apart in the source
Method in brief: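 Each LCO probe at 3 μM was added to two-fold serial dilutions of carbohydrate in dH2O (10–0.039 mg/ml for β-1,3-glucan, cellulose, chitin; 5–0.019 mg/ml for the others), run in triplicate. Excitation spectra were scanned 300–500 nm with emission at 545 nm. Detection was a reproducible λmax and/or RFU shift versus negative control, with linear regression of RFU against concentration.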

[3] = for RFU change (Correlation analysis): probe-specific excitation λ, emission 545 nm; for Gradient Parameters (gradient of regression line) / Linear relationship / Quality of Gradient: linear regression
Method in brief: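 LCO probes at 3 μM mixed with serial twofold carbohydrate dilutions in dH2O (10–0.039 or 5–0.019 mg/ml, depending on carbohydrate). Excitation scanned 300–500 nm, emission read at 545 nm; detection defined as reproducible shift in λmax and/or RFU relative to negative control, with linear regression of RFU against concentration.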

[4] = Method in brief: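 3 μM of each LCO probe was added to serial two-fold carbohydrate dilutions in water (10–0.039 or 5–0.019 mg/ml). Excitation spectra were scanned 300–500 nm with emission at 545 nm, in triplicate. Detection was defined as a reproducible shift in λmax and/or RFU versus negative control, with linear regression of RFU against concentration.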
[5] = remark: listed apart in the source
Method in brief: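 LCO probes (3 μM) were added to serial two-fold dilutions of carbohydrate suspensions in dH2O, with excitation scanned 300–500 nm and emission at 545 nm. Detection was a reproducible λmax and/or RFU change versus no-carbohydrate control. RFU was regressed linearly against concentration at the λmax or the lowest-background excitation.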

[6] = remark: listed apart in the source
Method in brief: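 LCO probes at 3 μM mixed with serial two-fold carbohydrate dilutions in water (10–0.039 or 5–0.019 mg/ml), run in triplicate. Excitation scanned 300–500 nm with emission at 545 nm; detection based on reproducible λmax or RFU shift against the no-carbohydrate control, with linear regression of RFU on concentration.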

[7] = Cellulobiose 5-0.019 mg/ml, 3 μM probe, spectral analysis, Excitation 300-500, Emission 545
[8] = amylose concentration vs RFU, linear regression
[9] = cellulobiose concentration vs RFU, linear regression
[10] = Chitin 10-[…], 3 μM probe, spectral analysis, Excitation 300-500, Emission 545
[11] = cellulose concentration vs RFU, linear regression
[12] = chitin concentration vs RFU, linear regression
[13] = β-1,3-glucan concentration vs RFU, linear regression
[14] = Glycogen 5-0.019 mg/ml, 3 μM probe, spectral analysis, Excitation 300-500, Emission 545
[15] = Chondroitin Sulfate A 5-0.019 mg/ml, 3 μM probe, spectral analysis, Excitation 300-500, Emission 545
[16] = Chondroitin Sulfate A concentration vs RFU, linear regression
[17] = sodium alginate concentration vs RFU, linear regression
[18] = glucose concentration vs RFU, linear regression

O=C(Cc1cc(-c2cccs2)sc1-c1ccc(-c2sc(-c3cccs3)cc2CC(=O)N[C@@H](Cc2ccc([O-])cc2)C(=O)[O-])s1)N[C@@H](Cc1ccc([O-])cc1)C(=O)[O-].[Na+].[Na+].[Na+].[Na+] [pHTA-Tyr, penta Hydrogen Thiophene Acetic acid Tyrosine]
RFU change (Correlation analysis) ([1]; Amylose 5-0.019 mg/ml, 3 μM probe): Unclear | RFU change (Signal deviation with increasing [Carbohydrate]) ([1]; Amylose 5-0.019 mg/ml, 3 μM probe, spectral analysis, Excitation 300-500, Emission 545): Unclear | RFU change (Correlation analysis) ([1]; Cellulobiose 5-0.019 mg/ml, 3 μM probe): Increases | RFU change (Signal deviation with increasing [Carbohydrate]) [1, 7]: Increases | λmax change [1, 7]: No change | carbohydrate can be detected and/or differentiated by the LCO ([1]; Cellulobiose, conclusion from change in signal magnitude and/or shift in λmax): can be detected and/or differentiated | Gradient Parameters (gradient of regression line) [1, 8]: −133.1 ± 128.5 | Quality of Gradient [1, 8]: Horizontal | Gradient Parameters (gradient of regression line) [1, 9]: 56.7 ± 16 | Linear relationship [1, 9]: Significant | Quality of Gradient [1, 9]: Positive | Sensitivity ([1]; to amylose): No | Sensitivity ([1]; to cellulobiose): Yes | RFU change (Correlation analysis) ([2]; Cellulose 10-[…], 3 μM probe): Unclear | RFU change (Signal deviation with increasing [Carbohydrate]) ([2]; Cellulose 10-[…], 3 μM probe, spectral analysis, Excitation 300-500, Emission 545): Unclear | RFU change (Correlation analysis) ([2]; Chitin 10-[…], 3 μM probe): Increases | RFU change (Signal deviation with increasing [Carbohydrate]) [2, 10]: Increases | λmax change [2, 10]: Redshift | carbohydrate can be detected and/or differentiated by the LCO ([2]; Chitin, conclusion from change in signal magnitude and/or shift in λmax): can be detected and/or differentiated | Gradient Parameters (gradient of regression line) [2, 11]: −51.4 ± 45.0 | Quality of Gradient [2, 11]: Horizontal | Gradient Parameters (gradient of regression line) [2, 12]: 972.3 ± 109.7 | Linear relationship [2, 12]: Significant | Quality of Gradient [2, 12]: Positive | Sensitivity ([2]; to cellulose): No | Sensitivity ([2]; to chitin): Yes | Sensitivity ([2]; to β-1,3-glucan): No | RFU change (Correlation analysis) ([2]; β-1,3-glucan 10-[…], 3 μM probe): Decrease | RFU change (Signal deviation with increasing [Carbohydrate]) ([2]; β-1,3-glucan 10-[…], 3 μM probe, spectral analysis, Excitation 300-500, Emission 545): Decrease | Gradient Parameters (gradient of regression line) [2, 13]: −53.2 ± 47.5 | Quality of Gradient [2, 13]: Horizontal | RFU change (Correlation analysis) ([3]; Glycogen 5-0.019 mg/ml, 3 μM probe): Decreases | RFU change (Signal deviation with increasing [Carbohydrate]) [3, 14]: Decreases | λmax change [3, 14]: Redshift | carbohydrate can be detected and/or differentiated by the LCO ([3]; Glycogen, conclusion from change in signal magnitude and/or shift in λmax): can be detected and/or differentiated | RFU change (Correlation analysis) ([3]; Heparin 5-0.019 mg/ml, 3 μM probe): Increases | RFU change (Signal deviation with increasing [Carbohydrate]) ([3]; Heparin 5-0.019 mg/ml, 3 μM probe, spectral analysis, Excitation 300-500, Emission 545): Increases | Gradient Parameters (gradient of regression line) ([3]; glycogen concentration vs RFU): −2062 ± 216.6 | Linear relationship ([3]; glycogen concentration vs RFU): Significant | Quality of Gradient ([3]; glycogen concentration vs RFU): Negative | Gradient Parameters (gradient of regression line) ([3]; heparin concentration vs RFU): 74.5 ± 80.7 | Linear relationship ([3]; heparin concentration vs RFU): Not Significant | Quality of Gradient ([3]; heparin concentration vs RFU): Horizontal | Sensitivity ([3]; to glycogen): Yes | Sensitivity ([3]; to heparin): No | RFU change (Correlation analysis) ([4]; Chondroitin Sulfate A 5-0.019 mg/ml, 3 μM probe, probe-specific excitation λ, emission 545 nm): Increases | RFU change (Signal deviation with increasing [Carbohydrate]) [4, 15]: Increases | λmax change [4, 15]: No change | Gradient Parameters (gradient of regression line) [4, 16]: 163.3 ± 61.5 | Linear relationship [4, 16]: Significant | Quality of Gradient [4, 16]: Positive | carbohydrate can be detected and/or differentiated by the LCO ([4]; Chondroitin sulfate A, conclusion from change in signal magnitude and/or shift in λmax): can be detected and/or differentiated | Sensitivity ([4]; to Chondroitin Sulfate A): Yes | RFU change (Correlation analysis) ([5]; Sodium alginate 5-0.019 mg/ml, 3 μM probe, probe-specific excitation λ, emission 545 nm): Unclear | RFU change (Signal deviation with increasing [Carbohydrate]) ([5]; Sodium alginate 5-0.019 mg/ml, 3 μM probe, spectral analysis, Excitation 300-500, Emission 545): Increases | Gradient Parameters (gradient of regression line) [5, 17]: 30.9 ± 175.5 | Quality of Gradient [5, 17]: Horizontal | Sensitivity ([5]; to sodium alginate): No | RFU change (Correlation analysis) ([6]; Glucose 5-0.019 mg/ml, 3 μM probe, probe-specific excitation λ, emission 545 nm): Increases | RFU change (Signal deviation with increasing [Carbohydrate]) ([6]; Glucose 5-0.019 mg/ml, 3 μM probe, spectral analysis, Excitation 300-500, Emission 545): Increases | carbohydrate can be detected and/or differentiated by the LCO ([6]; Glucose, conclusion from change in signal magnitude and/or shift in λmax): can be detected and/or differentiated | Gradient Parameters (gradient of regression line) [6, 18]: 799.4 ± 95.1 | Linear relationship [6, 18]: Significant | Quality of Gradient [6, 18]: Positive | Sensitivity ([6]; to glucose): Yes
